From patent publication US20230381157A1, “RIFABUTIN FOR THE TREATMENT OF ACINETOBACTER BAUMANNII” (University of Southern California, priority 2018, published 2023)
Converted amounts (≈) assume the structure as drawn. “Also recorded” adds a separate entry of the source. Read-outs that look alike come from different tables or passages of the source.

Assays:
[1] = test system: A. baumannii AB5075 transposon disruption mutants; experiment: microbe, parasite or virus in culture; type: cell-based, Acinetobacter baumannii; conditions: for MIC: Acinetobacter baumannii
LAC-4 = type: in vivo, Galleria mellonella; conditions: G. mellonella
A. baumannii HUMC1 [2] = type: in vivo, mouse; conditions: for lung CFUs: lungs at 24 hrs post infection
A. baumannii HUMC1 [3] = type: in vivo, mouse
[4] = 5 mg/kg/daily for 3 days, oral gavage
[5] = 5 mg/kg/daily for 3 days, oral gavage, listed as RBT

## CO[C@H]1/C=C/O[C@@]2(C)Oc3c(C)c(O)c4c(c3C2=O)C2=NC3(CCN(CC(C)C)CC3)NC2=C(NC(=O)/C(C)=C\C=C\[C@H](C)[C@H](O)[C@@H](C)[C@@H](O)[C@@H](C)[C@H](OC(C)=O)[C@@H]1C)C4=O [rifabutin]
[1]; AB06732, ABUW_2557, RPMI
  Rifabutin MIC: 0.05 µg/mL
[1]; AB06821, ABUW_2586 (allophanate hydrolase), MHII
  Rifabutin MIC: 3.13 µg/mL
[1]; AB06821, ABUW_2586 (allophanate hydrolase), RPMI
  Rifabutin MIC: 0.05 µg/mL
[1]; AB06822, ABUW_2586, MHII
  Rifabutin MIC: 3.13 µg/mL
[1]; AB06822, ABUW_2586, RPMI
  Rifabutin MIC: 0.05 µg/mL
[1]; AB07354, disrupted gene aroP, RPMI, listed as RBT
  Rifabutin MIC: 0.05 µg/mL
[1]; AB07356, disrupted gene aroP, RPMI, listed as RBT
  Rifabutin MIC: 0.05 µg/mL
[1]; AB07566, ABUW_2893 (hypothetical protein), MHII
  Rifabutin MIC: 0.78 µg/mL
[1]; AB07566, ABUW_2893 (hypothetical protein), RPMI
  Rifabutin MIC: 0.05 µg/mL
[1]; AB07567, ABUW_2893, MHII
  Rifabutin MIC: 0.78 µg/mL
[1]; AB07567, ABUW_2893, RPMI
  Rifabutin MIC: 0.05 µg/mL
[1]; AB07813, disrupted gene mtr, RPMI, listed as RBT
  Rifabutin MIC: 0.05 µg/mL
[1]; AB09112, ABUW_3470 (Zn-dependent hydrolase), MHII
  Rifabutin MIC: 0.78 µg/mL
[1]; AB09112, ABUW_3470 (Zn-dependent hydrolase), RPMI
  Rifabutin MIC: 0.05 µg/mL
[1]; AB09114, ABUW_3470, MHII
  Rifabutin MIC: 0.78 µg/mL
[1]; AB09114, ABUW_3470, RPMI
  Rifabutin MIC: 0.05 µg/mL
[1]; AB09979, disrupted gene aroP, RPMI, listed as RBT
  Rifabutin MIC: 0.05 µg/mL
[1]; AB09980, disrupted gene tryP, RPMI, listed as RBT
  Rifabutin MIC: 0.05 µg/mL
[1]; AB09982, disrupted gene tryP, RPMI, listed as RBT
  Rifabutin MIC: 0.05 µg/mL
[1]; AB10057, ABUW_3811 (DID), MHII
  Rifabutin MIC: 3.13 µg/mL
[1]; AB10057, ABUW_3811 (DID), RPMI
  Rifabutin MIC: 0.05 µg/mL
[1]; AB10058, ABUW_3811, MHII
  Rifabutin MIC: 3.13 µg/mL
[1]; AB10058, ABUW_3811, RPMI
  Rifabutin MIC: 0.05 µg/mL
[1]; read-out: Rifabutin MIC, AB00188, disrupted gene aroP, MHII
  MIC: 3.13 µg/mL (≈ 3.7 µM)
[1]; read-out: Rifabutin MIC, AB00188, disrupted gene aroP, RPMI
  MIC: < 0.05 µg/mL
[1]; read-out: Rifabutin MIC, AB00190, disrupted gene aroP, MHII
  MIC: 6.25 µg/mL (≈ 7.38 µM)
[1]; read-out: Rifabutin MIC, AB00190, disrupted gene aroP, RPMI
  MIC: < 0.05 µg/mL
[1]; read-out: Rifabutin MIC, AB00215, disrupted gene tryP, MHII
  MIC: 6.25 µg/mL (≈ 7.38 µM)
[1]; read-out: Rifabutin MIC, AB00215, disrupted gene tryP, RPMI
  MIC: < 0.05 µg/mL
[1]; read-out: Rifabutin MIC, AB00216, disrupted gene tryP, MHII
  MIC: 1.56 µg/mL (≈ 1.84 µM)
[1]; read-out: Rifabutin MIC, AB00216, disrupted gene tryP, RPMI
  MIC: < 0.05 µg/mL
[1]; read-out: Rifabutin MIC, AB02204, disrupted gene aroP, MHII
  MIC: 6.25 µg/mL (≈ 7.38 µM)
[1]; read-out: Rifabutin MIC, AB02204, disrupted gene aroP, RPMI
  MIC: < 0.05 µg/mL
[1]; read-out: Rifabutin MIC, AB02205, disrupted gene aroP, MHII
  MIC: 3.13 µg/mL (≈ 3.7 µM)
[1]; read-out: Rifabutin MIC, AB02205, disrupted gene aroP, RPMI
  MIC: < 0.05 µg/mL
[1]; read-out: Rifabutin MIC, AB03015, disrupted gene aroP, MHII
  MIC: 6.25 µg/mL (≈ 7.38 µM)
[1]; read-out: Rifabutin MIC, AB03015, disrupted gene aroP, RPMI
  MIC: < 0.05 µg/mL
[1]; read-out: Rifabutin MIC, AB03608, disrupted gene hisJ, MHII
  MIC: 3.13 µg/mL (≈ 3.7 µM)
[1]; read-out: Rifabutin MIC, AB03608, disrupted gene hisJ, RPMI
  MIC: < 0.05 µg/mL
[1]; read-out: Rifabutin MIC, AB03612, disrupted gene hisM, MHII
  MIC: 3.13 µg/mL (≈ 3.7 µM)
[1]; read-out: Rifabutin MIC, AB03612, disrupted gene hisM, RPMI
  MIC: < 0.05 µg/mL
[1]; read-out: Rifabutin MIC, AB03616, disrupted gene hisM, MHII
  MIC: 6.25 µg/mL (≈ 7.38 µM)
[1]; read-out: Rifabutin MIC, AB03616, disrupted gene hisM, RPMI
  MIC: < 0.05 µg/mL
[1]; read-out: Rifabutin MIC, AB03618, disrupted gene hisM, MHII
  MIC: 6.25 µg/mL (≈ 7.38 µM)
[1]; read-out: Rifabutin MIC, AB03618, disrupted gene hisM, RPMI
  MIC: < 0.05 µg/mL
[1]; read-out: Rifabutin MIC, AB5075-UW (parent strain), MHII
  MIC: 6.25 µg/mL (≈ 7.38 µM)
[1]; read-out: Rifabutin MIC, AB5075-UW (parent strain), RPMI
  MIC: < 0.05 µg/mL
[1]; read-out: Rifabutin MIC, AB06105, disrupted gene aroP, MHII
  MIC: 3.13 µg/mL (≈ 3.7 µM)
[1]; read-out: Rifabutin MIC, AB06105, disrupted gene aroP, RPMI
  MIC: < 0.05 µg/mL
[1]; read-out: Rifabutin MIC, AB06383, disrupted gene hisJ, MHII
  MIC: 6.25 µg/mL (≈ 7.38 µM)
[1]; read-out: Rifabutin MIC, AB06383, disrupted gene hisJ, RPMI
  MIC: < 0.05 µg/mL
[1]; read-out: Rifabutin MIC, AB06386, disrupted gene hisP, MHII
  MIC: 0.78 µg/mL (≈ 0.921 µM)
[1]; read-out: Rifabutin MIC, AB06386, disrupted gene hisP, RPMI
  MIC: < 0.05 µg/mL
[1]; read-out: Rifabutin MIC, AB06392, disrupted gene hisP, MHII
  MIC: 0.78 µg/mL (≈ 0.921 µM)
[1]; read-out: Rifabutin MIC, AB06392, disrupted gene hisP, RPMI
  MIC: < 0.05 µg/mL
[1]; read-out: Rifabutin MIC, AB07354, disrupted gene aroP, MHII
  MIC: 6.25 µg/mL (≈ 7.38 µM)
[1]; read-out: Rifabutin MIC, AB07354, disrupted gene aroP, RPMI
  MIC: < 0.05 µg/mL
[1]; read-out: Rifabutin MIC, AB07356, disrupted gene aroP, MHII
  MIC: 1.56 µg/mL (≈ 1.84 µM)
[1]; read-out: Rifabutin MIC, AB07356, disrupted gene aroP, RPMI
  MIC: < 0.05 µg/mL
[1]; read-out: Rifabutin MIC, AB07813, disrupted gene mtr, MHII
  MIC: 25 µg/mL (≈ 29.5 µM)
[1]; read-out: Rifabutin MIC, AB07813, disrupted gene mtr, RPMI
  MIC: < 0.05 µg/mL
[1]; read-out: Rifabutin MIC, AB09979, disrupted gene aroP, MHII
  MIC: 0.78 µg/mL (≈ 0.921 µM)
[1]; read-out: Rifabutin MIC, AB09979, disrupted gene aroP, RPMI
  MIC: < 0.05 µg/mL
[1]; read-out: Rifabutin MIC, AB09980, disrupted gene tryP, MHII
  MIC: 3.13 µg/mL (≈ 3.7 µM)
[1]; read-out: Rifabutin MIC, AB09980, disrupted gene tryP, RPMI
  MIC: < 0.05 µg/mL
[1]; read-out: Rifabutin MIC, AB09982, disrupted gene tryP, MHII
  MIC: 6.25 µg/mL (≈ 7.38 µM)
[1]; read-out: Rifabutin MIC, AB09982, disrupted gene tryP, RPMI
  MIC: < 0.05 µg/mL
LAC-4
  efficacy RBT vs RIF: no difference in efficacy
A. baumannii HUMC1 [2]; 5 mg/kg for 3 days, […]
  survival: about 80%
A. baumannii HUMC1 [2]; [4]
  survival: significantly improved
  lung CFUs: significantly lower CFUs in the lung
A. baumannii HUMC1 [2]; [5]
  survival: significantly improved survival
  lung CFUs: significantly reduced lung CFUs; also recorded: significantly lower CFUs in the lung
A. baumannii HUMC1 [2]; 10 mg/kg/day for 3 days, oral gavage, listed as RBT
  survival: modest improvement in survival; also recorded: modest survival benefit
A. baumannii HUMC1 [2]; 10 mg/kg/day for 3 days, at 24 hours
  reduction in the median CFUs in the blood as compared to RIF-treated mice: 7 log
A. baumannii HUMC1 [2]; C3H mice, 10 mg/kg/daily for 3 days, oral gavage, blood at 24 hrs
  CFUs in blood (vs RIF): significant reduction in CFUs
A. baumannii HUMC1 [2]; murine pneumonia, 5 mg/kg
  improvement of survival rates: over 70%
A. baumannii HUMC1 [2]; murine pneumonia, 5 mg/kg, day 7 post-infection
  bacterial burden: about 2 Log10(CFU/mg lung)
A. baumannii HUMC1 [3]; IV infection, 10 mg/kg/day for 3 days, oral gavage, 10 mg/kg/day
  survival: improved survival
A. baumannii HUMC1 [3]; IV infection, 10 mg/kg/day for 3 days, oral gavage, at 1 hr
  CFUs in blood: significantly lower CFUs in the blood
A. baumannii HUMC1 [3]; IV infection, 10 mg/kg/day for 3 days, oral gavage, at 24 hrs, 10 mg/kg/day
  CFUs in blood: significantly lower CFUs in the lung
A. baumannii HUMC1 [3]; IV infection, 10 mg/kg/day for 3 days, oral gavage, at 24 hrs, listed as RBT, 10 mg/kg/day
  CFUs in blood: significantly lower CFUs in the blood; also recorded: significantly reduced CFUs
A. baumannii HUMC1 [3]; IV infection, 10 mg/kg/day for 3 days, oral gavage, listed as RBT, 10 mg/kg/day
  survival: significant improvement in survival; also recorded: significantly improved survival
A. baumannii HUMC1 [3]; IV infection, RBT 0.1 or 0.3, RIF 10 or 30 mg/kg/daily for 3 days, printed 100X / 100×
  fully protective at fold lower dose than RIF: 100
A. baumannii HUMC1 [3]; bacteremia model, 10 mg/kg for 3 days, 2 days post infection, PBS/control 0%
  survival: about 100%
A. baumannii HUMC1 [3]; murine bacteremia, 0.1 mg/kg
  protection: fully protective
